According to patent US9206236B2, “Peptides for treating cancer” (Gene Signal International SA, priority 2010, dated 2015):

How the values were obtained:
[1] = molecular target: T1, recruitment of the regulatory subunit (p85) of the enzyme PI-3K by IRS-1 (Homo sapiens, UniProt P27986); experiment: Recruitment of p85 of PI-3K by IRS-1 (IRS-1 immunoprecipitation, anti-p85 immunoblot) in HMEC; type: cell-based; details: final concentration of peptide 500 μg/ml
T1 construct: endogenous in cells; host or cells: human microvascular endothelial cells (HMEC)
T1 sequence (P27986 whole entry): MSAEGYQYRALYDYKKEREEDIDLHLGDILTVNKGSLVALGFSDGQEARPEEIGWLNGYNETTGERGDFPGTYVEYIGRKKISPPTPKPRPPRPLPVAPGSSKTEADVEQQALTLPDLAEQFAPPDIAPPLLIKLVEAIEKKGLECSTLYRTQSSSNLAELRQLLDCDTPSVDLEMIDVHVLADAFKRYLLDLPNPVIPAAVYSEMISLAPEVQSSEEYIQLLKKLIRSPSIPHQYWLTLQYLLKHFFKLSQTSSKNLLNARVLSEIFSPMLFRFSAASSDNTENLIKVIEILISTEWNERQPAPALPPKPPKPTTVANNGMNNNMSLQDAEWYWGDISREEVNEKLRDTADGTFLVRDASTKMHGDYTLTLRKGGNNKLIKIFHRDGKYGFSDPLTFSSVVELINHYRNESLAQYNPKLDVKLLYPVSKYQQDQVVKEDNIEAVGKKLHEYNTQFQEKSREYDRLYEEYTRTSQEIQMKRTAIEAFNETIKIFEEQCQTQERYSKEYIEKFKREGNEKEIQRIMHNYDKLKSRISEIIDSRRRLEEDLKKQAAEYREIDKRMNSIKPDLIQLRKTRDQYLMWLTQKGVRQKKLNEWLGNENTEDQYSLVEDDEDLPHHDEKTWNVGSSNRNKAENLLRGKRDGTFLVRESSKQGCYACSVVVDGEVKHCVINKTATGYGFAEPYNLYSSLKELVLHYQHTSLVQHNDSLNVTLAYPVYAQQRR
Method: (§1) Human EC grown in EGM-2MV (80% confluence) were incubated with the peptides of the invention or vehicle for the indicated time, washed three times in cold PBS and directly lysed in 2 ml of ice-cold lysis buffer (10 mM Tris pH 7.5, 150 mM NaCl, 1 mM PMSF, 0.5 μg/ml leupeptin, 1 μg/ml pepstatin A, and 1 μg/ml aprotinin) by incubation for 30 min at 4° C. Cell lysate were spun at […] for 10 min, insoluble materials were discarded, and protein contents measured by Bradford assay of supernatants were adjusted. Cell lysate (1 ml) was precleared with 25 μl of protein G-plus agarose beads (Santa Cruz) for 30 min, and proteins were then immunoprecipitated by adding 2 μg of the indicated antibody and incubated for 1 hr. The immunocomplex was pulled down with protein G-plus agarose beads and the beads were washed three times with lysis buffer. The immunoprecipitates were separated by NuPAGE® 4-12% Bis-Tris gel electrophoresis under reducing conditions, transferred to PVDF membrane (Novex System, Invitrogen), and the membrane was blocked with 5% (w/v) non-fat milk in TBS containing 0.1% v/v Tween-20 for 1 hr.
As it is widely admitted that the tyrosine phosphorylation of IRS-1 leads to its association with the regulatory subunit (p85) of the enzyme PI-3K, and this event lead to important increases in the enzymatic activity of this later, we have investigated the influence of the tyrosine phosphorylated and non phosphorylated peptides onto the recruitment of the regulatory subunit (p85) of the enzyme PI-3K by IRS-1. For that, human microvascular endothelial cells (HMEC) were incubated with the tyrosine phosphorylated and non phosphorylated peptides (final concentration of peptide 500 μg/ml) followed by cells lysis and immuoprecipitation of the protein IRS-1. The immunoprecipitates were then resolved in SDS-PAGE, proteins were transferred to membranes, and the membranes were immunoblotted with an anti-p85 PI3K monoclonal antibody.

[2] = test system: mTOR; experiment: mTOR status in HMEC after incubation with peptides (anti-mTor antibody Ser2448); type: cell-based, human
Method: as §1
The status of mTOR in the HMEC following incubation with peptides GS-0 and GS-1 was investigated.

[3] = test system: NCI-H460 tumors; experiment: NCI-H460 tumor xenograft in nude mice, tumor volume (Example 2); type: in vivo
Method: H460 cell line has cytology compatible with human Non-Small Cell Lung Cancer (NSCL). Cells were grown in MEM medium containing 10% FCS at 37° C., 5% CO2 humidified atmosphere. The absence of mycoplasms was confirmed by using the PCR Mycoplasma Detection kit (Takara). All experiments were reviewed by the Genopole's institutional animal care and use committee and were performed in accordance with institutional guidelines for animal care. Female BALB/c nu/nu mice (n=30) were used at 5-6 weeks of age. The animals were housed in laminar air-flow cabinets under pathogen-free conditions with a 12 h light/12 h dark schedule, and fed autoclaved standard chow and water ad libitum. The NCI-H460 human NSCL cell line was obtained from American Type Culture Collection (ATCC) and cells were grown in RPMI medium 1640 supplemented with 1 μM sodium pyruvate. Tumor cells (10^7 cells in 200 μl of HBSS) were injected subcutaneously into the right flanks of mice. After engraftment, tumor volume was measured by Vernier callipers, and calculated as described in Balsari A et al. (Balsari A et al. (2004) Eur J Cancer 40: 1275-1281). At tumor volume about 150 mm3, animals were randomized, and separated into five groups of five animals. Control mice (group 1) were intraperitoneally injected with vehicle (10% DMSO in buffer saline) every day. GS-0 was dissolved in vehicle and intraperitoneally injected (group 2) every day (12 injections). GS-1 was dissolved in vehicle and intraperitoneally injected (group 3) every day (12 injections). Tumor volume and body weight were measured every other day over the treatment period (12 days). GS-1 as well as the control peptide GS-0 were solubilized in DMSO and the resulting solutions were diluted 10 times with phosphate buffer saline (PBS) to obtain a concentration of 1 mg of peptide/ml of 10% DMSO in PBS. At this concentration, all peptides were soluble in 10% DMSO.

## Ac-NYICMG-NH2 [GS-0, NYICMG, reference compound]
[1]
  influence onto the recruitment of the regulatory subunit (p85) of PI3K by IRS-1: no and/or negligible influence
[2]
  amounts of mTOR in HMEC relative to vehicle: equivalent amounts of mTOR as cell incubated with vehicle
[3]; 8 mg/kg i.p. daily for 12 days
  influence on the in vivo growth of the tumor NCI-H460 (in words): no significant influence
[3]; 8 mg/kg i.p. daily for 12 days, n=5
  mean tumor volume at the end of treatment: 1114.83 ± 534.50 mm^3
[3]; Table 2, 8 mg/kg i.p. daily, day 1
  Mean tumor volume D1: 123 mm³
[3]; Table 2, 8 mg/kg i.p. daily, day 3
  Mean tumor volume D3: 233 mm³
[3]; Table 2, 8 mg/kg i.p. daily, day 5
  Mean tumor volume D5: 335 mm³
[3]; Table 2, 8 mg/kg i.p. daily, day 7
  Mean tumor volume D7: 402 mm³
[3]; Table 2, 8 mg/kg i.p. daily, day 9
  Mean tumor volume D9: 553 mm³
[3]; Table 2, 8 mg/kg i.p. daily, day 11
  Mean tumor volume D11: 751 mm³
[3]; Table 2, 8 mg/kg i.p. daily, day 13
  Mean tumor volume D13: 1110 mm³
